For the assay, the system named is ENR-Apt 6 (DNA, aptamer) GCGGCTGCTTACGGATAGAAGGCGGATGGAGAAATGAACCGGGGTGGTCCGTTGTCCATCCGTAAAGCCCAAGTC
In words: graphene oxide fluorescence quenching/recovery, aptamer titrated. The conditions noted are these: aptamer 25-200 nM in ultrapure water; 20 μg/mL GO; 250 μM ENR solution added (1:1:1 v/v); apparent.

The structures appear in SMILES notation.

With `CCN1CCN(c2cc3c(cc2F)c(=O)c(C(=O)O)cn3C2CC2)CC1`, the Kd amounted to 35.08 nM.
